According to US8895565B2, “Heterocyclic compound and use of the same” (priority 2009, dated 2014):

Key:
[1] = system: liver cell growth stimulation induced by growth factor TGFα; assay: Test (c): in vivo inhibition of liver cell growth stimulation induced by TGFα (BrdU uptake); settings: Rattus norvegicus; male rats, oral, inhibition of liver cell proliferation by BrdU uptake, approximate ED50
Protocol: (c) In vivo assay for measuring the effect of a test compound (usually, ball-milled, prepared as a suspension in 0.5% polysorbate, and orally administered) in inhibiting liver cell growth stimulation induced by administration of growth factor TGFα (subcutaneous administration of 400 μg/kg, i.e., twice a usual dose, 3 hours and 7 hours respectively after administration of the test compound) in a group of male rats
In a control group of rats, administration of TGFα causes liver cell growth stimulation as large as on average 5 times.
Cell growth of control animals and test animals was measured in accordance with the following manner:
On the morning of the day after a test compound (or 0.5% polysorbate in a control group) was administered, bromodeoxyuridine (BrdU; intraperitoneally 100 mg/kg) was administered to animals. Four hours later, the animals were killed and the livers were excised out. Slices were cut out from each liver, and BrdU uptake was measured in the same manner as in conventional immunohistological techniques described below:
To calculate an approximate ED50 value on inhibition of liver cell proliferation measured by inhibition of BrdU uptake, tests were further performed using the test compound within a predetermined dose range.

[2] = system: xenografts of the human vulval epidermoid carcinoma cell line A-431; assay: Test (d): in vivo inhibition of growth of A-431 xenografts in athymic nude mice; settings: tumor volume vs untreated control, dose of 50 mg/day/weight (kg), oral, once per day
Protocol: (d) In vivo assay on a group of athymic nude mice (strain ONU: Alpk) for determining the effect of a test compound (usually, ball-milled, prepared as a suspension in 0.5% polysorbate, and orally administered) in inhibiting the growth of xenografts of the human vulval epidermoid carcinoma cell line A-431
A-431 cells were maintained in a cultured product in DMEM having 5% FCS and 2 mM glutamine supplemented thereto. Freshly cultured cells were harvested by trypsinization and subcutaneously injected into both flanks of each of many donor nude mice (10000000 cells/0.1 ml/mouse). When a sufficient amount of tumorigen was obtained (about 9 to 14 days later), fragments of tumor tissue were transplanted in the flanks of recipient nude mice (test day 0). […] To these groups of mice, administration of the test compound was commenced. The test compound was administered once per day continuously for 13 days in total (including test day 7 to 19). In some tests, administration of the test compound was continued beyond test day 19, for example, to test day 26. In each case, the animals were killed on the following day and final tumor volume was calculated from the measurement values of the length and width of the tumors. The suppression percentage was calculated from the resultant tumor volume based on the control (untreated).

[3] = target: T1, EGF receptor tyrosine kinase (Homo sapiens, UniProt P00533); assay: Test (a): in vitro inhibition of the enzyme EGF receptor tyrosine kinase; assay type: biochemical; settings: receptor tyrosine kinase partially purified from A-431 cells, EGF-stimulated
T1 construct: Receptor tyrosine kinase was obtained from A-431 cells (derived from human vulval carcinoma) in partially purified form; endogenous in cells; host or cells: A-431 cells (human vulval carcinoma); solubilised membrane preparation
Protocol: (a) In vitro assay for measuring the effect of a test compound in inhibiting the enzyme EGF receptor tyrosine kinase
Receptor tyrosine kinase was obtained from A-431 cells (derived from human vulval carcinoma) in partially purified form by a method relevant to a method shown in Carpenter et al., J. Biol. Chem., 1979, 254, 4884, Cohen et. al., J. Biol. Chem., 1982, 257, 1523, and Braun et al., J. Biol. Chem., 1984, 259, 2051.
A-431 cells were grown in Dulbecco's modified Eagle's medium (DMEM) containing 5% fetal calf serum (FCS) up to a confluent state. The resultant cells were homogenized in a hypotonic borate/EDTA buffer (pH 10.1). The homogenate was centrifuged at 400×g for 10 minutes at 0° C. to 4° C. […]
The test compound/EGF mixture solution (5 μl) was added to the test enzyme solution (10 μl) and the mixture was incubated at 0° C. to 4° C. for 30 minutes. […] Radioactivity present in the paper-filter was measured by a liquid scintillation counter (Sequence A). […] Receptor tyrosine kinase inhibition was indicated by inhibition ratio (%), which was calculated in accordance with the following equation, provided that the measurement results of sequence A is expressed by SA, the measurement results of sequence B by SB, and the measurement results of sequence C by SC. […] Subsequently, within a concentration range of a test compound providing IC50 value, the extent of inhibition was determined.

[4] = system: human nasopharyngeal cancer cell line KB; assay: Test (b): in vitro inhibition of EGF-stimulated growth of KB cells (MTT); assay type: cell-based; settings: EGF 10 ng/ml
Protocol: (b) In vitro assay for measuring the effect of a test compound in inhibiting growth of human nasopharyngeal cancer cell line KB by EGF-stimulation
KB cells were seeded into wells at a density of 1×10^4 to 1.5×10^4 cells per well and grown in DMEM supplemented with 5% FCS (charcoal-stripped) for 24 hours. After incubation for 3 days, cell growth was determined based on the extent of blue color occurrence, which was produced by metabolizing a MTT tetrazolium dye. Subsequently, cell growth was determined in the presence of EGF (10 ng/ml) or in the presence of EGF (10 ng/ml) and a test compound within a predetermined concentration range. Then, an IC50 value could be calculated.

T1 sequence (P00533 25-1210): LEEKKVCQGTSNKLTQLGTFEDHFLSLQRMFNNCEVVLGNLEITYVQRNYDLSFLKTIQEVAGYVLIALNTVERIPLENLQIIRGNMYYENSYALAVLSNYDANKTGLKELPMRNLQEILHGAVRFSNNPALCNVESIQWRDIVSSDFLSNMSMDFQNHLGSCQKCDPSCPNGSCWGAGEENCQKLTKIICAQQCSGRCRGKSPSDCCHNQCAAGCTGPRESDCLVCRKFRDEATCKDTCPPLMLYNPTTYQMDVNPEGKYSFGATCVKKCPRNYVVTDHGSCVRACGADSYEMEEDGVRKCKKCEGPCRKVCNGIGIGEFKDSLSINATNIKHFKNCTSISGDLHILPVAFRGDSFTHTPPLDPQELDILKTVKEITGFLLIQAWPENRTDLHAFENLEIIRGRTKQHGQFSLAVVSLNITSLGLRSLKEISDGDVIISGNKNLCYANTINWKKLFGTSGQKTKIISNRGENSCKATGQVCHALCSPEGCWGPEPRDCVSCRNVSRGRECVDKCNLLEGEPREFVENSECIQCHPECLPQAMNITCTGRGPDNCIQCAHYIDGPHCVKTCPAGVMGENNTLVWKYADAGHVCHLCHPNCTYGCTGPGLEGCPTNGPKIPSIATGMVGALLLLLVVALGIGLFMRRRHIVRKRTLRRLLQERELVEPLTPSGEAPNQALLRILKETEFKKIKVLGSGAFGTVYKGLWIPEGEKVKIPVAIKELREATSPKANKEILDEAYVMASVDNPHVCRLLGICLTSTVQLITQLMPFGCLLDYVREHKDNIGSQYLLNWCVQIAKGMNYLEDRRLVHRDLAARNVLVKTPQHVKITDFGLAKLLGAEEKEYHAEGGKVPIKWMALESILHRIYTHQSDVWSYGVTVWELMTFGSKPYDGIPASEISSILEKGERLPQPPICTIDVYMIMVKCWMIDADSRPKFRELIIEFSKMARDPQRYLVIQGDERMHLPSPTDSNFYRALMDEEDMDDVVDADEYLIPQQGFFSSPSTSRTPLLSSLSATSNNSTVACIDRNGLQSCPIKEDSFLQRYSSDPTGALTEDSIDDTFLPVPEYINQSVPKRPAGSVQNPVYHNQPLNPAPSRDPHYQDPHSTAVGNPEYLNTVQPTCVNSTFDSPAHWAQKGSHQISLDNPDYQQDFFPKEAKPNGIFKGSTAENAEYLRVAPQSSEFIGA
T1 sequence (P01133 971-1023 partner limits assumed): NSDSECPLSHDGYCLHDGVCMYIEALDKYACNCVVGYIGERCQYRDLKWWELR

Row | SMILES | ED50 [1] | suppression rate in Test (d) [2] | IC50 [3] | IC50 [4]
1 | CCOC(=O)c1ccc(CNc2ncnc(C)c2C#Cc2ccc(C(F)(F)F)cc2)o1 [Compound No. 1, Ethyl 5-{6-methyl-5-{[4-(trifluoromethyl)phenyl]ethynyl}pyrimidin-4-ylaminomethyl}-2-furancarboxylate] | < 12.1 mg/kg | 68% | 240 nM | 800 nM
2 | COC(=O)c1ccc(CNc2ncnc(C)c2C#Cc2ccc(C(F)(F)F)cc2)o1 [Compound No. 2, Methyl 5-(6-methyl-5-{[4-(trifluoromethyl)phenyl]ethynyl}pyrimidin-4-ylaminomethyl)-2-furancarboxylate] | < 11.8 mg/kg | 69% | 220 nM | 700 nM
